According to US20210047304A1, “Bromodomain Inhibitors” (AbbVie Inc., priority 2016, published 2021):

Target: BRD4 (BDI_K57-E168) (Homo sapiens, UniProt O60885)
Assay: TR-FRET bromodomain binding assay, BRD4 BDI
Description: A time-resolved fluorescence resonance energy transfer (TR-FRET) assay was used to determine the affinities of compounds of the Examples listed in Table 1 for each bromodomain of BRD4. […] An Alexa647-labeled BET-inhibitor was used as the fluorescent probe in the assay.
(§1) Compound dilution series were prepared in DMSO via an approximately 3-fold serial dilution. Compound dilutions were added directly into white, low-volume assay plates (Perkin Elmer Proxiplate 384 Plus #6008280) using a Labcyte Echo in conjunction with Labcyte Access and Thermo Multidrop CombinL robotics. Compounds were then suspended in eight microliters (μL) of assay buffer (20 mM Sodium Phosphate, pH 6.0, 50 mM NaCl, 1 mM Ethylenediaminetetraacetic acid disodium salt dihydrate, 0.01% Triton X-100, 1 mM DL-Dithiothreitol) containing His-tagged bromodomain, Europium-conjugated anti-His antibody (Invitrogen PV5596) and Alexa-647-conjugated probe.
After a one-hour equilibration at room temperature, TR-FRET ratios were determined using an Envision multilabel plate reader (Ex 340, Em 495/520).
TR-FRET data were normalized to the means of 24 no-compound controls (“high”) and 8 controls containing 1 μM un-labeled probe (“low”). Percent inhibition was plotted as a function of compound concentration and the data were fit with the 4 parameter logistic equation to obtain IC50s. Inhibition constants (Ki) were calculated from the IC50s, probe Kd and probe concentration.
Compound dilution series for Compounds A-E were prepared in DMSO via an approximately 3-fold serial dilution from 0.47 mM to 7.8 nM.
as §1, with “Compound” for “Compound dilution series were prepared in DMSO via an approximately 3-fold serial dilution. Compound”
TR-FRET data were normalized to the means of 24 no-compound controls (“high”) and 8 controls containing 1 μM un-labeled probe (“low”). Percent inhibition was plotted as a function of compound concentration and the data were fit with the 4 parameter logistic equation to obtain IC50s. Inhibition constants (Ki) were calculated from the IC50s, probe Kd and probe concentration. Typical Z′ values were between 0.65 and 0.75. The minimum significant ratio was determined to evaluate assay reproducibility (Eastwood et al., (2006) J Biomol Screen, 11: 253-261). The MSR was determined to be 2.03 for BDI and 1.93 for BDII, and a moving MSR (last six run MSR overtime) for both BDI and BDII was typically <3.

SMILES | Ki
Cc1cc(F)cc(C)c1Oc1ccc(C(C)(C)O)cc1-c1cn(C)c(=O)cc1O[C@H]1CC[C@H](N2C(=O)CCC2C)CC1 (relative stereo) [Example 42, 5-[2-(4-fluoro-2,6-dimethylphenoxy)-5-(2-hydroxypropan-2-yl)phenyl]-1-methyl-4-{[trans-4-(2-methyl-5-oxopyrrolidin-1-yl)cyclohexyl]oxy}pyridin-2(1H)-one] | 3.84 µM
Cc1cc(F)cc(C)c1Oc1ccc(C(C)(C)O)cc1-c1cn(C)c(=O)cc1O[C@H]1CC[C@H](NC(=O)C23CC(NC(=O)OC(C)(C)C)(C2)C3)CC1 (relative stereo) [Example 72, tert-butyl (3-{[trans-4-({5-[2-(4-fluoro-2,6-dimethylphenoxy)-5-(2-hydroxypropan-2-yl)phenyl]-1-methyl-2-oxo-1,2-dihydropyridin-4-yl}oxy)cyclohexyl]carbamoyl}bicyclo[1.1.1]pentan-1-yl)carbamate] | > 13 µM
Cc1cc(F)cc(C)c1Oc1ccc(C(C)(C)O)cc1-c1cn(C)c(=O)cc1O[C@H]1CC[C@H](NC(=O)C23CC(C2)C3)CC1 (relative stereo) [Example 86, N-[trans-4-({5-[2-(4-fluoro-2,6-dimethylphenoxy)-5-(2-hydroxypropan-2-yl)phenyl]-1-methyl-2-oxo-1,2-dihydropyridin-4-yl}oxy)cyclohexyl]bicyclo[1.1.1]pentane-1-carboxamide] | 1.74 µM
Cc1cc(F)cc(C)c1Oc1ccc(C(C)(C)O)cc1-c1cn(C)c(=O)cc1O[C@H]1CC[C@H](NC(=O)C23CC(N)(C2)C3)CC1 (relative stereo) [Example 93, 3-amino-N-[trans-4-({5-[2-(4-fluoro-2,6-dimethylphenoxy)-5-(2-hydroxypropan-2-yl)phenyl]-1-methyl-2-oxo-1,2-dihydropyridin-4-yl}oxy)cyclohexyl]bicyclo[1.1.1]pentane-1-carboxamide] | 1.19 µM

More lines, now with the values ahead:

Ki | SMILES
8.01 µM | Cc1cc(F)cc(C)c1Oc1ccc(C(C)(C)O)cc1-c1cn(C)c(=O)cc1O[C@H]1CC[C@H](NC(=O)C23CCC(NC(=O)OC(C)(C)C)(C2)C3)CC1 (relative stereo) [Example 103, tert-butyl (4-{[trans-4-({5-[2-(4-fluoro-2,6-dimethylphenoxy)-5-(2-hydroxypropan-2-yl)phenyl]-1-methyl-2-oxo-1,2-dihydropyridin-4-yl}oxy)cyclohexyl]carbamoyl}bicyclo[2.1.1]hexan-1-yl)carbamate]
3.65 µM | Cc1cc(F)cc(C)c1Oc1ccc(C(C)(C)O)cc1-c1cn(C)c(=O)cc1O[C@H]1CC[C@H](NC(=O)C23CCC(CO)(CC2)CC3)CC1 (relative stereo) [Example 110, N-[trans-4-({5-[2-(4-fluoro-2,6-dimethylphenoxy)-5-(2-hydroxypropan-2-yl)phenyl]-1-methyl-2-oxo-1,2-dihydropyridin-4-yl}oxy)cyclohexyl]-4-(hydroxymethyl)bicyclo[2.2.2]octane-1-carboxamide]
> 13 µM | Cc1cc(F)cc(C)c1Oc1ccc(C(C)(C)O)cc1-c1cn(C)c(=O)cc1O[C@H]1CC[C@H](N2C(=O)C3COCCN3C2=O)CC1 (relative stereo) [Example 126, 2-[trans-4-({5-[2-(4-fluoro-2,6-dimethylphenoxy)-5-(2-hydroxypropan-2-yl)phenyl]-1-methyl-2-oxo-1,2-dihydropyridin-4-yl}oxy)cyclohexyl]tetrahydro-1H-imidazo[5,1-c][1,4]oxazine-1,3(2H)-dione]
0.772 µM | Cc1cc(F)cc(C)c1Oc1ccc(C(C)(C)O)cc1-c1cn(C)c(=O)cc1O[C@H]1CC[C@H](N2C(=O)C3CC3C2=O)CC1 (relative stereo) [Example 129, 3-[trans-4-({5-[2-(4-fluoro-2,6-dimethylphenoxy)-5-(2-hydroxypropan-2-yl)phenyl]-1-methyl-2-oxo-1,2-dihydropyridin-4-yl}oxy)cyclohexyl]-3-azabicyclo[3.1.0]hexane-2,4-dione]
